From patent publication US10253185B2, “Fluorogenic pH-sensitive dyes and their methods of use (II)” (LIFE TECHNOLOGIES CORPORATION, priority 2012, dated 2019) come the findings set out here.

For assay [1], the system named is cells. The experiment in a line: Intracellular pH response of dye-loaded cells under perfusion with pH standards (nigericin/valinomycin). It counts as cell-based. Particulars: 5 μM loading; potassium LCIS pH standards 7.4, 7.2, 6.5, 6.0; nigericin and valinomycin 10 μM each. The procedure:
10 mL loading buffer, Compound (4): 10 μL Compound (4) from a 5 mM DMSO stock was added to 100 μL Powerload and mixed. 10 mL LCIS was added to this solution for final concentration of Compound (4) of 5 μM.
Cells were cultured on 35 mm MatTek glass bottom dishes. For loading, cells were rinsed 1× with LCIS and replaced with loading buffer described above. Cells were incubated at 37° C. for 60 minutes, then rinsed 2× with LCIS and imaged with standard TRITC or FITC filter sets. (see FIG. 5).
Cells were cultured and loaded as described above with Compound (4). This solution was removed from the cells and replaced with potassium LCIS pH 7.4 standard and imaging experiments begun with cells under constant perfusion by potassium LCIS pH standards of pH 7.4, 7.2, 6.5, and 6.0. […] (Nigericin and valinomycin added at 10 μM each from DMSO stock.) Images of Compound (4) AM loaded cells at pH 7.4 and 6.0 are shown in FIG. 6. Functional kinetic responses from individually selected cells in the sample are shown in FIG. 7 as the pH was changed from 7.4 to 6.0 and back.

The subject of assay [2] is J774.2 murine macrophages. The experiment in a line: No-wash phagocytosis assay with E. coli bioparticles conjugated to pH-sensitive dye. The assay is classed as cell-based. The following applies: E. coli bioparticle-dye conjugates, J774.2 macrophages. The text has this:
Certain embodiments provide a no-wash, no-quench assay for phagocytosis that is based on fluorogenic bioparticles comprising the pH-sensitive fluorescent dye compounds provided herein. Current protocols for measuring phagocytosis that use fluorescent bioparticles, require a trypan blue quenching step and several washing steps. These steps can introduce significant variability in the assay. To address this issue, provided herein is a no-wash phagocytosis kit, using E. coli bioparticles conjugated to a pH-sensitive fluorescent dye as described herein. These bioparticle conjugates are weakly fluorescent at extracellular pH. […] The pH-sensitive fluorescent bioparticles described herein may be used in plate based, as well as imaging and flow cytometry assays of phagocytosis.

Take `CCN(CCCC(=O)NCCCCC(C(=O)OCOC(C)=O)N(CC(=O)OCOC(C)=O)CC(=O)OCOC(C)=O)c1cc(OC)c(-c2c3ccc(=[N+](C)C)cc-3oc3cc(N(C)C)ccc23)cc1N(C)C` (centres unmarked) [Compound (4), N-(9-(4-((8-(2-(acetoxymethoxy)-2-oxoethyl)-9-((acetoxymethoxy)carbonyl)-2,6,15-trioxo-3,5-dioxa-8,14-diazaoctadecan-18-yl)(ethyl)amino)-5-(dimethylamino)-2-methoxyphenyl)-6-(dimethylamino)-3H-xanthen-3-ylidene)-N-methylmethanaminium]: the “signal from the dye inside of the cells as external pH changed” value in assay [1] is “the signal from the dye inside of the cells changed”.
For cytochalaisin D, in assay [2], the “uptake of the bioparticles (phagocytosis)” value was “potently inhibited”.
